pIC50: −log10 of the molar value.

One may read the pIC50 as the negative decadic logarithm of the IC50, by convention in mol/L.

For the test, the target named is T1, recombinant human ALK protein (Homo sapiens, UniProt Q9UM73).
T1 construct: purchased Life Technologies Inc. PV3867
The test can be described thus: LanthaScreen TR-FRET in vitro inhibitory activity assay of ALK. Type of test: biochemical. The settings on record: for pIC50: TR-FRET, 5 μM ATP, 1 hour at room temperature; for inhibition at 2 µg/mL / Averaged Enzymatic Inhibition @ 2ug/ml (%): compound at 2ug/ml; for inhibition at 2 µg/mL: read-out: Averaged Enzymatic Inhibition @ 2ug/ml (%). As to the method:
All reagents and anhydrous solvents were obtained from commercial sources and used as received. The positive control inhibitors of ALK, crizotinib and ceritinib, were purchased from Bangshunda Technology and Selleck Chemicals, respectively. The compounds were dissolved in 100% dimethyl sulfoxide (DMSO) as a 10 mM stock solution. The final DMSO concentration in each reaction was less than 1%. Purified recombinant human ALK protein (Catalog number: PV3867) as well as reagents for TR-FRET assay, including Lantha Screen™ Tb-PY20 (Catalog number: PV3552), Fluorescein-Poly GT (Catalog number: PV3610), ATP (Catalog number: PV3227), Kinase Quench Buffer (Catalog number: P2832), Kinase Buffer (Catalog number: PV3189), and Antibody Dilution Buffer (Catalog number: PV3574), were all obtained from Life Technologies Inc.
Lantha Screen™ kinase assay based on TR-FRET technology was used to measure the inhibitory activity of the screened compounds. All the assays were carried out in 384-well plate format. The 4 × test compounds were firstly prepared before the enzyme reaction starts. The 4 × recombinant human ALK protein and 2 × Substrate/ATP mixture were separately prepared in 50 mM HEPES (pH = 7.5), 0.01% BRIJ-35, 10 mM MgCl2, 4 mM MnCl2, 1 mM EGTA, and 2 mM DTT. The final 10 μL kinase reaction consists of 5 μL 1 × Substrate/ATP mixture (0.2 μM substrate and 5 μM ATP), 2.5 μL ALK (5 ng/ml ALK protein), and 2.5 μL 1 × test compounds with desired concentration. The assay plate was shook on a plate shaker for 30 seconds to mix the reactions thoroughly. After 1 hour kinase reaction incubation at room temperature (20 ~ 25 °C), 10 μL of pre-prepared 20 mM EDTA and 4 nM Tb-labeled antibody solution was then added to terminate the kinase reactions and to initiate antibody binding, and the assay plate was incubated for another 1 hour at room temperature. Then, the assay plate was placed into a fluorescence plate reader (BioTek Synergy™ 4) to measure both fluoresce in and terbium emission signals (excitation: 340 nm; emission: 520 and 495 nm, respectively) with 100 μs delay time and 200 μs integration time. To determine the IC50 values, the resulted inhibitory activity calculated from TR-FRET emission ratio (i.e. fluoresce in emission intensity/terbium emission intensity) was plotted against the concentration of inhibitor, and the data was fitted to a dose-response curve with a variable slop.

T1 sequence (Q9UM73 1058-1620 limits assumed): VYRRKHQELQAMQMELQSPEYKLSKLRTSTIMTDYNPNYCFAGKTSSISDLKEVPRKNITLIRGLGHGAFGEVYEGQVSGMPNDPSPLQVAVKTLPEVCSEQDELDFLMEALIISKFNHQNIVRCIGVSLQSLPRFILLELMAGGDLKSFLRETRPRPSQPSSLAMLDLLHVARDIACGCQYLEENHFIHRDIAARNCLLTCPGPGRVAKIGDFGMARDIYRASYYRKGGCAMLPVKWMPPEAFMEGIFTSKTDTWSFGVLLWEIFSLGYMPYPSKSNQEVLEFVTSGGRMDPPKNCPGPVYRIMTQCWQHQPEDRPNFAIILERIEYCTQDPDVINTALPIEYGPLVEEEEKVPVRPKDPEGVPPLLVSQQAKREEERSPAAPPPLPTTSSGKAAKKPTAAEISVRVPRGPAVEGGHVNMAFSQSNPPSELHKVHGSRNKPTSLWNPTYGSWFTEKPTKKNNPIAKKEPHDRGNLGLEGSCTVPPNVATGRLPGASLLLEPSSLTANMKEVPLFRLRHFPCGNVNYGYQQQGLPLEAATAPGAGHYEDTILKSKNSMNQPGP

`CN1C(=O)c2cccc3c(S(=O)(=O)Nc4nc[nH]n4)ccc1c23` [Compound M6]: the pIC50 was 5.35 and the inhibition at 2 µg/mL amounted to 53.3%.
With `CCN1C(=O)c2cccc3c(S(=O)(=O)Nc4nc5ccccc5s4)ccc1c23` [Compound M7], the pIC50 is 5.22 and the inhibition at 2 µg/mL is 50.8%.
`Cc1cccc2cc3c(nc12)N(C(=O)c1ccc(S(=O)(=O)N2CCCCC2)cc1)CC3` [Compound M8]: the pIC50 is 4.94 and the “Averaged Enzymatic Inhibition @ 2ug/ml (%)” value was 48.88%.
Taken in the same sequence, the figures for `Cc1c(C=C2C(=O)N(C)C(=S)N(C)C2=O)c2ccccc2n1Cc1ccccc1` [Compound M9] were 4.74 and 37.24%.

(Values after article PMC4840416, “Constructing and Validating High-Performance MIEC-SVM Models in Virtual Screening for Kinases: A Better Way for Actives Discovery” (Scientific Reports, 2016).)
